Consider four compounds from patent publication US20060106032A1, “Synthesis of N2 - (substituted arylmethyl) -3- (substituted phenyl) indazoles as novel anti-angiogenic agents” (YUNG SHIN PHARM. IND. CO., LTD., priority 2004, published 2006).

As usually defined, the melting point is the temperature of the solid-liquid transition.

The subject of series [1] is VEGF-induced angiogenesis. To be noted: previous finding; cited from earlier work.
In series [2] the test system is human umbilial vein endothelial cells (HUVECs). To be noted: previous finding; cited from earlier work.
A further series has as its system angiogenesis. The series is described as follows: Evaluation for anti-angiogenic activities (overall summary). To be noted: summary statement. As to the method: 3-(4-Methylphenyl)-1H-indazole (10) and N^2-(substituted benzyl)-3-(4-methylphenyl)indazoles (15, 17, 21, 25, 26) were evaluated for anti-angiogenic activities.
In this study, 3-(4-methylphenyl)-1H-indazole (10) and five of the above mentioned N^2-regioisomers, namely, compounds 15, 17, 21, 25 and 26 were selected for evaluating their effects on VEGF-induced cell proliferation, on VEGF-induced tube formation of HUVECs in vitro, and on neovascular formation in vivo.

The subject of series [3] is Human umbilical vein endothelial cells (HUVECs). The series is described as follows: [3H]thymidine incorporation assay: VEGF-induced cell proliferation (DNA synthesis) of HUVECs. It counts as cell-based. Conditions: VEGF 10 ng/mL; for activity on VEGF-induced cell proliferation of HUVECs compared with positive control YD-3: 1 μM. Here is the method: Human umbilical vein endothelial cells were incubated in the absence (basal and control) or presence of tested sample (YD-3, 10, 15, 17, 21, 25, 26) with 30 μM, and then vascular endothelial growth factor (VEGF) was added (except for basal) to induce DNA synthesis, which was detected using [^3H] thymidine incorporation assay.
Human umbilical vein endothelial cells were incubated in the absence (basal and control) or presence of tested sample (YD-3, 10, 15, 17, 21, 25, 26) with 10 μM, and then vascular endothelial growth factor (VEGF) was added (except for basal) to inducd DNA synthesis, which was detected using [^3H] thymidine incorporation assay. Means±S.E. (n=5) were presented.
Human umbilical vein endothelial cells were incubated in the absence (basal and control) or presence of tested sample (YD-3, 10, 15, 17, 21, 25, 26) with 1 μM, and then vascular endothelial growth factor (VEGF) was added (except for basal) to inducd DNA synthesis, which was detected using [^3H] thymidine incorporation assay. Means±S.E. (n=5) were presented.
(§1) Human umbilical vein endothelial cells (HUVECS) were isolated according to the protocols from Jaffe et al. and obtained from human umbilical cord veins with collagenase and cultured in 75 cm^2 plastic flasks in M199 containing 20% FBS, 15 μg/mL endothelial cell growth supplements (ECGs). Confirmation of their identity as endothelial cells was provided by detection of CD31 (PECAM-1), assessed by immunostaining. Experiments were conducted on HUVECs that had used in passage 2 to 5.
Confluent HUVECs were trypsinized, suspended in DMEM supplemented with 20% FBS, and seeded at 1.0×10^4 cells per well into 96-well plates. After 24 h, the cells were washed twice with PBS and starved with 2% FBS-M199 medium for 24 h. The cells were incubated with or without indicated reagents and growth factors (VEGF; 10 ng/mL) for 24 h and harvested. Before the harvest, cells were incubated with [^3H]thymidine (2 μCi/mL) for 4 h, harvested with Filter-Mate (Packard), and incorporated radioactivity was determined.
The effect of tested compounds on VEGF-induced cell proliferation of HUVECs was assessed with the [^3H]thymidine incorporation assay, and the results were illustrated in FIG. 5-FIG. 7.
(In general: Incorporation of labelled thymidine or its analogues reports DNA synthesis.)

The test system is the same in series [4]. The series is described as follows: VEGF-induced tube formation of HUVECs on Matrigel. It counts as cell-based. To be noted: FIG. 8; for blockage of VEGF-induced tube formation of HUVECs: Matrigel-coated chamberslide. As to the method: FIG. 8 show photographs of the results of in vitro assay (inhibition of tube formation). Human umbilical vein endothelial cells were cultured onto chamberslide, which was precoated with Matrigel (10 mg/ml). Cells were treated without (basal and control) or with tested sample (YD-3, 10, 15, 17, 21, 25, 26) and then vascular endothelial growth factor (VEGF) was added to induce tube formation. All photographs were taken at 100×magnification.
as §1

For series [5], the system named is VEGF-induced angiogenesis in Matrigel plug. The series is described as follows: In vivo Matrigel plug assay (neovascular formation, hemoglobin concentration). Conditions: nude mice, FIG. 9; for anti-angiogenic activity in Matrigel plug assay (hemoglobin concentration): 150 ng/ml VEGF plug, oral, seven-day administration. Here is the method: Nude mice were subcutaneously injected with a Matrigel plug containing 150 ng/ml vascular endothelial growth factor (VEGF). Vehicle or tested sample (YD-3, 10, 15, 17, 21, 25, 26) was orally administered into the mice. After a seven-day administration, the animals were euthanized and the plugs were cut of the mice for the measurement of angiogenic effect using the hemoglobin concentration as the parameter by means of a hemoglobin detection kit (Sigma). Means±S.E. (n=3) were presented. Nude mice (6 weeks of age) were given s.c. injections of 500 μL of Matrigel (Becton Dickinson, Bedford, Mass.) at 4° C. with or without YC-1 and growth factor (150 ng/mL VEGF). After injection, the Matrigel rapidly formed a plug. After 7 days, the skin of the mouse was easily pulled back to expose the Matrigel plug, which remained intact. After quantitative differences were noted and photographed, hemoglobin was measured, as an indication of blood vessel formation, using the Drabkin method (Drabkin reagent kit 525, Sigma, St. Louis, Mo.). The concentration of hemoglobin was calculated from a known amount of hemoglobin assayed in parallel. The in vivo Matrigel plug assay was used in this study to determine quantitative the anti-angiogenic effect of tested compounds.

The subject of series [6] is thrombin-induced Ca++ signal and thromboxane production. To be noted: previous work; cited from earlier work.
In series [7] the target is T1, protease activated receptor (PAR)-4 (Homo sapiens, UniProt Q96RI0).
T1 sequence (Q96RI0 18-385): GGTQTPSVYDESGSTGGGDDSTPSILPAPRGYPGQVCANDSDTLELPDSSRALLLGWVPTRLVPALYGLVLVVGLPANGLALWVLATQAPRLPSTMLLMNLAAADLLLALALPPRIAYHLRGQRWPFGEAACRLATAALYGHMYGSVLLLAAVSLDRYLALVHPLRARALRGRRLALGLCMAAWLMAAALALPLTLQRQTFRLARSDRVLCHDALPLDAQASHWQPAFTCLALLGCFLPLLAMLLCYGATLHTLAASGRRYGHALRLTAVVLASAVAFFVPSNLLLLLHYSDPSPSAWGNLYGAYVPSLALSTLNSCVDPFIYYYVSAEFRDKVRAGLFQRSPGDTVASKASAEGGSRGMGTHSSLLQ
To be noted: previous works; cited from earlier work.

Molecules are shown by their SMILES.

As to `O=C(O)c1ccc(-c2nn(Cc3ccccc3)c3ccccc23)cc1` [CHS-6, 4-(1-benzyl-1H-indazol-3-yl)benzoic acid], the “inhibition of VEGF-induced angiogenesis in Matrigel plug animal model” value in [1] is “inhibit”. In addition, in series [2], the “inhibition of VEGF-induced cell proliferation in HUVECs” value is on record as “inhibit”, the “inhibition of VEGF-induced migration in HUVECs” value was “inhibit” and the “inhibition of VEGF-induced tube formation in HUVECs” value is listed as “inhibit”.
Turning to `Cc1ccc(Cn2nc3ccccc3c2-c2ccc(C)cc2)cc1` [Compound 21, 2-(4-Methylbenzyl)-3-(4-methylphenyl)-2H-indazole], the melting point was 107.5 to 109.3 °C. For the same compound, the “anti-angiogenic activity (overall)” value with angiogenesis is “significant anti-angiogenic activity”. Also, the “activity on VEGF-induced cell proliferation of HUVECs compared with positive control YD-3” value in series [3] was “better activity than positive control YD-3”. In addition, the “inhibitory effect on VEGF-induced cell proliferation of HUVECs ([3H]thymidine incorporation)” value (from here on “inhibitory effect”) in series [3] (10 μM, FIG. 6) is “significant inhibitory effect”. Besides, in [3] (30 μM, FIG. 5), the “inhibitory effect” value is recorded as “significant inhibitory effect”. For the same compound, in series [4], the “inhibitory activity on tube formation compared with other tested compounds and YD-3” value is “more potent than other tested compounds and YD-3”; the “blockage of VEGF-induced tube formation of HUVECs” value is on record as “significant blockage”. Further, in series [5], the “anti-angiogenic activity in Matrigel plug assay (hemoglobin concentration)” value is recorded as “significant anti-angiogenic activities” and the “anti-angiogenic potency in Matrigel plug assay compared with positive control YD-3” value is on record as “superior potency than the positive control YD-3”.
In turn, `COc1ccc(Cn2nc3ccccc3c2-c2ccc(C)cc2)cc1` [Compound 25, 2-(4-Methoxylbenzyl)-3-(4-methylphenyl)-2H-indazole] displayed a melting point of 113.6 to 115 °C. Also, in the series with angiogenesis, the “anti-angiogenic activity (overall)” value is recorded as “significant anti-angiogenic activity”. The “activity on VEGF-induced cell proliferation of HUVECs compared with positive control YD-3” value in series [3] is on record as “better activity than positive control YD-3”. Also, the “inhibitory effect” value in series [3] (10 μM, FIG. 6) is “significant inhibitory effect”. In addition, in [3] (30 μM, FIG. 5), the “inhibitory effect” value is on record as “significant inhibitory effect”. Moreover, in [4], the “inhibitory activity on tube formation compared with other tested compounds and YD-3” value was “more potent than other tested compounds and YD-3”; the “blockage of VEGF-induced tube formation of HUVECs” value is given as “significant blockage”. Further, in series [5], the “anti-angiogenic activity in Matrigel plug assay (hemoglobin concentration)” value is “significant anti-angiogenic activities” and the “anti-angiogenic potency in Matrigel plug assay compared with positive control YD-3” value is on record as “superior potency than the positive control YD-3”.
As for `CCOC(=O)c1ccc(-c2nn(Cc3ccccc3)c3ccccc23)cc1` [YD-3, Ethyl 4-(1-benzyl-1H-indazol-3-yl)benzoate], in [6], the “inhibition of low thrombin-induced Ca++ signal” value is “effectively inhibits” and the “inhibition of low thrombin-induced thromboxane production” value is “effectively inhibits”. Moreover, the “inhibitory effect” value in series [3] (10 μM, FIG. 6) is reported as “significant inhibitory effect”. Further, the “inhibitory effect” value in series [3] (30 μM, FIG. 5) is “significant inhibitory effect”. In [7], the “inhibition of PAR-4-dependent activation” value is “selective and potent inhibitor”. Besides, the “inhibition of VEGF-induced angiogenesis in Matrigel plug animal model” value in series [1] is listed as “inhibit”. In [2], the “inhibition of VEGF-induced cell proliferation in HUVECs” value was “inhibit”, the “inhibition of VEGF-induced migration in HUVECs” value was “inhibit” and the “inhibition of VEGF-induced tube formation in HUVECs” value is on record as “inhibit”.
